Reference: US20250250265A1, “BENZOTHIAZOLE-PHENYLSULFONYL-PIPERIDINE ANALOGS AS ACTIVATORS OF NACYLPHOSPHATIDYLETHANOLAMINE HYDROLYZING PHOSPHOLIPASE D” (priority 2022, published 2025)
pEC50: −log10 of the molar value. Like-named read-outs stand apart in the source and are kept apart here.

How the values were obtained:
[1] = target: T1, soluble epoxide hydrolase (sEH) (Homo sapiens, UniProt P34913); test: sEH activity assay (Cayman Chemicals); format: biochemical
T1 construct: purchased Cayman Chemicals
T1 sequence (P34913 1-555): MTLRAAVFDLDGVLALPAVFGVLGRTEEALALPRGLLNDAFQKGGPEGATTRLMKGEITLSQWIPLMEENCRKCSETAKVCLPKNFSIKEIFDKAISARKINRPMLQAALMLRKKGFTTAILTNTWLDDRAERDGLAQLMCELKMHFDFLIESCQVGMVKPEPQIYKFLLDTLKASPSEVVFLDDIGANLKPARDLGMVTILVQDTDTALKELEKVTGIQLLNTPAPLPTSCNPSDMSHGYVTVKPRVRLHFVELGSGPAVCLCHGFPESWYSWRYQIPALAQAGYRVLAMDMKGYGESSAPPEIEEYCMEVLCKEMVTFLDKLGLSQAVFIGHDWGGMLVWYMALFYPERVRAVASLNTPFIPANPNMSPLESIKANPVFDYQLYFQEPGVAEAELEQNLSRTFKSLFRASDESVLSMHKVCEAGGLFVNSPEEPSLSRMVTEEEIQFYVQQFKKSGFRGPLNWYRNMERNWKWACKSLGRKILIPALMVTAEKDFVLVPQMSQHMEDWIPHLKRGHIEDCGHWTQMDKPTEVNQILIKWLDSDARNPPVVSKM
Protocol: Concentration response curves were plotted for VU534 for the enzymes fatty acid amide hydrolase (FAAH) and soluble epoxide hydrolase (sEH).
The fluorescence interference assay was performed using the same method as the HTS assay, but with BODIPY-FL C5 (Thermo Fisher Scientific) used in place of PED-A1. sEH and FAAH activity assays were performed according to the manufacturer's specifications (Cayman Chemicals).

[2] = target: T2, NAPE-PLD activity of RAW264.7 macrophages (Mus musculus, UniProt Q8BH82); test: Cell-based NAPE-PLD activity in RAW264.7 macrophages (PED-A1 with orlistat)
T2 construct: endogenous in cells; host or cells: RAW264.7
T2 sequence (Q8BH82 1-396): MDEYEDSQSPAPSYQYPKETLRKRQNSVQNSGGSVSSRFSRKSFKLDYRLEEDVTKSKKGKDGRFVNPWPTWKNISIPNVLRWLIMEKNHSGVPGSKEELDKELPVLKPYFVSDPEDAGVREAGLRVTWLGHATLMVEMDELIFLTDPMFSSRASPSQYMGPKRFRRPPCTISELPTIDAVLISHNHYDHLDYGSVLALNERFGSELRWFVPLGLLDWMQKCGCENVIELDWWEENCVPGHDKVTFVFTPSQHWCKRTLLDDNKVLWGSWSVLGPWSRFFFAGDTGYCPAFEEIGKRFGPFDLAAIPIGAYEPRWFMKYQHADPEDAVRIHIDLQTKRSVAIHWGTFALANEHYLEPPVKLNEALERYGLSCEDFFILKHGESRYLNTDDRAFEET
Protocol: NAPE-PLD activity was measured in cells as previously described, except that FluoroBrite DMEM (Gibco A1896701) was used as media. See Zarrow et al., J. Lipid Res. 63(1): 100156 (2022). For RAW264.7 assays, PED-A1 (3.6 μM final) was used as the substrate with 10 μM orlistat added to inhibit PLA1 activity, while for HepG2 cells, flame-NAPE was used (with no orlistat added).

[3] = target: T3, recombinant mouse NAPE-PLD (Mus musculus, UniProt Q8BH82); test: In vitro fluorescence NAPE-PLD activity assay (HTS/CRC) with recombinant mouse NAPE-PLD and PED-A1; format: biochemical
T3 construct: hexahistidine (His6) (C); made in house; host or cells: E. coli
T3 sequence (Q8BH82 1-396): T2 sequence (Q8BH82 1-396)
Protocol: Using the fluorogenic NAPE substrate, PED-A1, and recombinant mouse NAPE-PLD (rNAPE-PLD), an in vitro high-throughput (HTS) assay was conducted to screen ˜40,000 compounds for their ability to modulate NAPE-PLD activity. The HTS assay enabled the detection of both NAPE-PLD activators and inhibitors. […] Initial structure-activity response studies with the top hits identified benzothiazole phenylsulfonyl-piperidine carboxamide analogs (BT-PSP analogs) as lead compounds for NAPE-PLD activators (Table 1). The lead BT-PSP analog identified, VU534, induces 50% of its activation effect on NAPE-PLD at 270 nM (AC50 270 nM), and induces a maximal effect of 195% of basal NAPE-PLD activity (Table 1).
In vitro fluorescence NAPE-PLD activity assays using recombinant NAPE-PLD and either PED-A1 or flame-NAPE as fluorogenic substrate were performed as previously described except with small modifications as noted below. See Aggarwal et al., J. Biol. Chem. 295(21): 7289-7300 (2020); Zarrow et al., J. Lipid Res. 63(1): 100156 (2022).
For the HTS assays, test compounds were incubated with recombinant enzyme for 1 h prior to adding PED-A1 (final 0.4 μM) mixed with N-palmitoyl-dioleoyl-PE (final 3.6 μM) to adjust for the high sensitivity of the Panoptic instrument (WaveFront Biosciences). Assays used black-wall, clear-bottom, non-sterile, and non-treated 384-well plates (Greiner Bio-One 781906). The assay was read in kinetic fluorescence mode on the Panoptic instrument for 4 min and the slope of the signal from 30-100 s was used for analysis. A total of 39,328 compounds from the Vanderbilt Discovery Collection were tested, each at 10 μM. The tested compounds were chosen to represent a structurally diverse selection from the full library. Each 384-well plate included 320 test compound wells and 64 control wells. Unlike previous pilot screening assays, bithionol (10 μM final) was used in place of lithocholic acid (100 μM final) as the inhibitor control. Before performing high-throughput screening, a checkerboard assay was performed to validate the assay parameters. This yielded a Z′ score of 0.676. Z′ scores were also calculated for each plate during screening, and plates with scores <0.5 were re-run. The average Z′ across all screening plates was 0.52, and the total hit rate was 3.6%. B-scores were calculated from the initial slopes across each plate using WaveGuide software (WaveFront Biosiences). Modulator hits were defined as compounds with absolute B-scores of 3 or higher. The number of compounds in various B-score ranges were as follows: […], 12 compounds; −10 to −5, 221 compounds; −5 to −3, 770 compounds; −3 to 3, 37924 compounds; 3 to 4, 314 compounds; 4 to 6, 70 compounds; 6 to 10, 15 compounds. Activator hits with B-scores of >3 were selected for the replication assay and a selection of analogs of the activators.
Concentration response curve (CRC) experiments used the same assay conditions as the HTS assay, except that graded concentrations of each test compound were used, with total amount of vehicle (DMSO) kept constant. CRC experiments with purified recombinant mouse NAPE-PLD were performed on two separate days, with values from each day normalized to vehicle only controls on same plate, and then all normalized values from both days averaged together. CRC experiments with human NAPE-PLD represent value from only a single day, due to limited amounts of this recombinant enzyme.

Row | SMILES | inhibition at 33 µM ([1]; 33 μM compound, compared to vehicle (0%)) | 10 μM Mϕ % NAPE-PLD activity ([2]; Table 2, Mϕ, 10 μM compound, vehicle = 100%) | Emax ([3]; Table 2, maximal induced activity for recombinant NAPE-PLD compared to basal (100%), read-out: Emax (%)) | pEC50 ([3]; Table 2, rNAPE-PLD activity assay, read-out: EC50) | Remaining sEH Activity (33 μM) ([1]; Table 3, 33 μM) | In-cell NAPE-PLD activity in RAW 264.7 (10 μM) with PED-A1 or flame-NAPE as substrate ([2]; Table 3, 10 μM) | pEC50 ([3]; Table 3, read-out: In vitro EC50) | Emax ([3]; Table 3, read-out: In vitro Emax (100% activity is baseline activity of vehicle only)) | Emax (95% Cl) ([3]; Table 4, maximal efficacy as fold increase in NAPE-PLD activity versus vehicle only)
1 | Cc1cccc2sc(NC(=O)C3CCN(S(=O)(=O)c4cnn(C)c4)CC3)nc12 [MRJ-058D] | 20% | 100% | 240% | 5.82 |  |  |  |  | 
2 | Cc1cccc2sc(NC(=O)C3CCN(S(=O)(=O)c4cccnc4)CC3)nc12 [VU211] |  |  |  |  | 48% | 114% | ~6.03 | ~176% | 2.1 (2.0-2.2) fold
